The text below walks through data of patent US4626540A, “Substituted 1-amino-4-nitro-acridinones and methods of treating bacterial infections and leukemia with them” (Warner-Lambert Company, priority 1984, dated 1986).

For one test, the system named is HCT-8 cells. The test is described as follows: In vitro proliferating human colon adenocarcinoma (HCA) cell screen, HCT-8 cells.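 Note: ID50 is the molar concentration giving 50% growth inhibition.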 The test is classed as cell-based. The note with it: 60-65 hours at 37° C., value is ID50 multiplied by 10^7. Here is the method:
One test protocol is the in vitro proliferating human colon adenocarcinoma (HCA) cell screen. In this test, HCT-8 cells (HCA cell line received from Yale University) are trypsinized using trypsin-EDTA. A single cell suspension is achieved by passing the cells through a 26-gauge needle with a 20-cc syringe. A cell suspension is prepared using RPMI 1640+10% FCS+50 μg/ml gentamicin sulfate with a cell concentration of approximately 5,000 cells/ml. The cell suspension is dispensed in Linbro 24-well plates; 1 ml/well. The plates are incubated for approximately 48 hours at 37° C. in a 5% CO2 atmosphere. At this time test compounds are added in the appropriate concentration. Ten μl of the appropriate dilution is added to each well for a titration test. The plates are reincubated an additional 60-65 hours at 37° C. in a 5% CO2 atmosphere. The cells are lysed using a mix of cationic surfactant, glacial acetic acid and sodium chloride. Two ml of the lysed cell suspension from each well is added to 8 ml of diluent. The number of nuclei is determined using a Coulter counter (ZBI model), and a percent growth for each drug concentration is calculated.

The subject of test [1] is Corynebacterium Sp. ATCC 21698. The test is described as follows: In vitro antibacterial (ABMF) microdilution test, Corynebacterium Sp. The test is classed as cell-based. Conditions: ATCC21698, Mueller-Hinton broth, 37° C., 16-24 hours, read-out: ABMF minimal inhibitory conc, Coryn. Species. The text has this: (§1) Still another test protocol is the in vitro antibacterial (ABMF) test which is a recognized standard microdilution susceptibility procedure in Mueller-Hinton broth against Gram-positive and Gram-negative bacterial test organisms. The procedure is a modification of a state-of-the-art procedure reported in Manual of Clinical Microbiology, Lennette, E. H., ed., by Barry, A. L. and C. Thornsberry at pages 463-474 and by Gavan, T. L. and A. L. Barry at pages 459-462, American Society for Microbiology, Washington, 1980.
(§2) In the test, a given bacterial culture is used to inoculate individual test wells of microdilution trays containing growth medium and test compound, the latter in a microdilution series: 1000, 333, 111, 37, 12, 4, 1.4, and 0.46 micrograms per milliliter. […] For convenience, values are reported for Escherichia coli, Corynebacterium Sp. ATCC 21698, Branhamella catarrhalis, Streptococcus pneumoniae, and Bacillus cereus.

The next test has as its system Branhamella catarrhalis. As to the kind of experiment: In vitro antibacterial (ABMF) microdilution test, Branhamella catarrhalis. The test is classed as cell-based. The note with it: Moraxella catarrhalis; Mueller-Hinton broth, 37° C., 16-24 hours; read-out: ABMF minimal inhibitory conc, B. cat.
Description: as §1, §2

The subject of the next test is Escherichia coli. The test is described as follows: In vitro antibacterial (ABMF) microdilution test, Escherichia coli. The test is classed as cell-based. Conditions: Mueller-Hinton broth, 37° C., 16-24 hours, read-out: ABMF minimal inhibitory conc, E. coli.
Description: as §1, §2

Test [2] concerns lymphocytic leukemia P388. As to the kind of experiment: In vivo lymphocytic leukemia P388 test. Also on record: species or system CD2 F1 mice. Conditions: Mus musculus, P388, ip, read-out: P388 in vivo T/C × 100. The method, then: Another test protocol is the in vivo lymphocytic leukemia P388 test. the animals used are either male or female CD2 F1 mice, six or seven animals per test group. The tumor transplant is by intraperitoneal injection of dilute ascitic fluid containing cells of lymphocytic leukemia P388. The test compounds are administered intraperitoneally once daily for five consecutive days at various doses following tumor inoculation. The animals are weighed and survivors are recorded on a regular basis for 30 days. A compound is designated "toxic" if, at a given dose, all animals die prior to four days after the first injection of drug. A ratio of survival time for treated (T)/control (C) animals is calculated. A criterion for efficacy is a ratio T/C times 100 greater than or equal to 125. See Cancer Chemotherapy Reports, Part 3, 3, 1 (1972) for a comprehensive discussion of the protocol.

In another test the test system is Streptococcus pneumoniae. The test is described as follows: In vitro antibacterial (ABMF) microdilution test, Streptococcus pneumoniae. The test is classed as cell-based. The note with it: Mueller-Hinton broth, 37° C., 16-24 hours, read-out: ABMF minimal inhibitory conc, S. pneu.
Description: as §1, §2

For a further test, the system named is Bacillus cereus. As to the kind of experiment: In vitro antibacterial (ABMF) microdilution test, Bacillus cereus. The test is classed as cell-based. The note with it: Mueller-Hinton broth, 37° C., 16-24 hours, read-out: ABMF minimal inhibitory conc, B. cer.
Description: as §1, §2

The test system of test [3] is L1210 murine leukemia cell lines. As to the kind of experiment: In vitro antitumor screening (PDC test), L1210 murine leukemia cell growth. The test is classed as cell-based. Conditions: Mus musculus, 72 h; L1210 cells, 37° C., three days; value is ID50 multiplied by 10^7. Here is the method: Another test protocol is the in vitro antitumor screening (PDC test) of compounds of the present invention on L1210 murine leukemia cell lines. L1210 cells, a murine leukemia cell line, were grown in RPMI 1640 supplemented with 5% fetal bovine serum and gentamicin (50 μg/ml).
Drug dilutions were prepared in the apropriate solvent and 20 μl of each dilution were added to 24-well Linbro tissue culture plats, followed by the addition of M 2.0 ml of cell suspension containing 3×10^4 cells per ml. Solvent and medium controls were included in each test. After incubation at 37° C. for three days in 5% CO2, the contents of each well were removed and the cells counted in a ZBI Coulter counter. Percent growth was calculated relative to the controls and the levels of drug activity wre expressed as ID50 in moles per liter using probit paper.

Where [4] appears, read: intraperitoneal, once daily for five days, survival time treated/control.
[5] abbreviates: 50 mg/kg, intraperitoneal, once daily for five days, survival time treated/control.

Where two headings read alike, the source gives them in different places. A value given as a limit tells only on which side of the number the result lay.

Take `CN(C)CCNc1ccc([N+](=O)[O-])c2[nH]c3ccccc3c(=O)c12` [Example 8, 1-[[2-(Dimethylamino)ethyl]amino]-4-nitro-9(10H)-acridinone, methanesulfonate (1:1), hemihydrate]: the 50% inhibitory concentration (IC50) with HCT-8 cells was 340 nM; in test [3] it was 390 nM. Moreover, the MIC in test [1] was less than 0.46 µg/mL; with Branhamella catarrhalis it was less than 0.46 µg/mL; in the test with Escherichia coli it was 1.4 µg/mL; with Streptococcus pneumoniae it was less than 0.46 µg/mL; in the test with Bacillus cereus, 4.1 µg/mL. The response vs control in vivo at 25 mg/kg in test [2] (setting [4]) is 142%. In test [2] (setting [5]), the response vs control in vivo at 50 mg/kg was 185%.
In the case of `COc1ccc2[nH]c3c([N+](=O)[O-])ccc(NCCN(C)C)c3c(=O)c2c1.CS(=O)(=O)O` [Example 9, 1-[[2-(Dimethylamino)ethyl]amino]-7-methoxy-4-nitro-9(10H)-acridinone, methanesulfonate (1:1)], the figures for the IC50 (in the test on HCT-8 cells; in test [3]) were 890 nM and 260 nM, respectively. Besides, the MIC in test [1] was less than 0.46 µg/mL; in the test on Branhamella catarrhalis it was less than 0.46 µg/mL; in the test on Escherichia coli it was greater than 1000 µg/mL; in the test with Streptococcus pneumoniae it was less than 0.46 µg/mL; with Bacillus cereus, greater than 1000 µg/mL. The response vs control in vivo at 25 mg/kg in test [2] (setting [4]) is 124%. In addition, the response vs control in vivo at 50 mg/kg in test [2] (setting [5]) amounted to 146%. For the same compound, the response vs control in vivo at 100 mg/kg in test [2] (setting [4]) is 201%. The response vs control in vivo at 200 mg/kg in test [2] (setting [4]) was found to be 269%.
As for `CCOc1ccc2[nH]c3c([N+](=O)[O-])ccc(NCCN(C)C)c3c(=O)c2c1.CS(=O)(=O)O` [Example 10, 1-[[2-(Dimethylamino)ethyl]amino]-7-ethoxy-4-nitro-9(10H)-acridinone, methanesulfonate (1:1)], the IC50 with HCT-8 cells stood at 360 nM; in test [3], 810 nM. The MIC (in test [1]; in the test on Branhamella catarrhalis; in the test on Escherichia coli; with Streptococcus pneumoniae; with Bacillus cereus) was greater than 1000 µg/mL each time. The response vs control in vivo at 25 mg/kg in test [2] (setting [4]) worked out at 128%. Moreover, in test [2] (setting [5]), the response vs control in vivo at 50 mg/kg came to 162%. Moreover, the response vs control in vivo at 100 mg/kg in test [2] (setting [4]) is 193%. Also, the response vs control in vivo at 200 mg/kg in test [2] (setting [4]) was found to be 260%.
Consider `COc1ccc2[nH]c3c([N+](=O)[O-])ccc(NC(C)CN(C)C)c3c(=O)c2c1` (stereo not drawn) [Example 12, 1-[[2-Dimethylamino)-1-methylethyl]amino]-7-methoxy-4-nitro-9(10H)-acridinone, methanesulfonate, 1.25 hydrate], for which the IC50 in the test with HCT-8 cells was determined as 450 nM; in test [3], 880 nM. Besides, the MIC in test [1] is 4.1 µg/mL; in the test on Branhamella catarrhalis it was 4.1 µg/mL; with Escherichia coli, 1.4 µg/mL; with Streptococcus pneumoniae it was less than 0.46 µg/mL; in the test on Bacillus cereus, 4.1 µg/mL. For the same compound, the response vs control in vivo at 25 mg/kg in test [2] (setting [4]) is 122%. Moreover, in test [2] (setting [5]), the response vs control in vivo at 50 mg/kg was 144%. Further, in test [2] (setting [4]), the response vs control in vivo at 100 mg/kg worked out at 180%. In addition, the response vs control in vivo at 200 mg/kg in test [2] (setting [4]) is 245%.
As to `CCOc1ccc2[nH]c3c([N+](=O)[O-])ccc(NC(C)CN(C)C)c3c(=O)c2c1` (stereo not drawn) [Example 13, 1[[2-(Dimethylamino)-1-methylethyl]amino]-7-ethoxy-4-nitro-9(10H)-acridinone, monomethanesulfonate, hyrate], the figures for the IC50 (in the test on HCT-8 cells; in test [3]) were 500 nM and 1090 nM, respectively. The MIC was less than 0.46 µg/mL in test [1]; 4.1 µg/mL in the test with Branhamella catarrhalis; 12.3 µg/mL in the test on Escherichia coli; 1.4 µg/mL in the test on Streptococcus pneumoniae; 12.3 µg/mL in the test on Bacillus cereus. Besides, the response vs control in vivo at 50 mg/kg in test [2] (120 h) is 227%. Also, the response vs control in vivo at 25 mg/kg in test [2] (setting [4]) amounted to 180%.
Regarding `O=c1c2ccccc2[nH]c2c([N+](=O)[O-])ccc(NCCNCCO)c12` [Example 16, 1-[[2-[(2-hydroxyethyl)amino]ethyl]amino]-4-nitro-9(10H)-acridinone, methanesulfonate (1:1), hydrate (1:1)], the figures for the IC50 (in the test on HCT-8 cells; in test [3]) were 200 nM and 330 nM, respectively. Also, the MIC was less than 0.46 µg/mL in test [1]; less than 0.46 µg/mL in the test with Branhamella catarrhalis; 1.4 µg/mL with Escherichia coli; 1.4 µg/mL with Streptococcus pneumoniae; 1.4 µg/mL in the test with Bacillus cereus. Besides, the response vs control in vivo at 25 mg/kg in test [2] (setting [4]) turned out to be 125%. Besides, in test [2] (setting [5]), the response vs control in vivo at 50 mg/kg is 159%.
Consider `CCOc1ccc2[nH]c3c([N+](=O)[O-])ccc(NCCNCCO)c3c(=O)c2c1.CS(=O)(=O)O` [Example 17, 7-Ethoxy-1-[[2-[(2-hydroxyethyl)amino]ethyl]amino]-4-nitro-9(10H)-acridinone, methanesulfonate], for which the IC50 in the test on HCT-8 cells worked out at 120 nM; in test [3], 180 nM. The MIC in test [1] is less than 0.46 µg/mL; in the test on Branhamella catarrhalis, 1.4 µg/mL; in the test with Escherichia coli, less than 0.46 µg/mL; with Streptococcus pneumoniae, 1.4 µg/mL; in the test on Bacillus cereus it was 4.1 µg/mL. In test [2] (setting [4]), the response vs control in vivo at 25 mg/kg amounted to 124%. Besides, in test [2] (setting [5]), the response vs control in vivo at 50 mg/kg was determined as 138%.
With `CCCCOc1ccc2[nH]c3c([N+](=O)[O-])ccc(NCCNCCO)c3c(=O)c2c1` [Example 18, 7-Butoxy-1-[[2-[(2-hydroxyethyl)amino]ethyl]amino]-4-nitro-9(10H)-acridinone, methanesulfonate, 0.3 hydrate], the IC50 in the test on HCT-8 cells was 400 nM; in test [3], 350 nM. The MIC in test [1] was determined as 37 µg/mL; in the test on Branhamella catarrhalis it was 333 µg/mL; in the test with Escherichia coli it was 111 µg/mL; in the test with Streptococcus pneumoniae, 37 µg/mL; in the test on Bacillus cereus, 333 µg/mL. In addition, in test [2] (12.5 mg/kg, intraperitoneal, once daily for five days, survival time treated/control), the response vs control in vivo at 12.5 mg/kg came to 121%. For the same compound, the response vs control in vivo at 25 mg/kg in test [2] (setting [4]) worked out at 136%.
As for `CCOc1ccc2[nH]c3c([N+](=O)[O-])ccc(NCCN(CCO)CCO)c3c(=O)c2c1` [Example 19, 1-[[2-Bis(2-hydroxyethyl)amino]ethyl]amino]-7-ethoxy-4-nitro-9(10H)-acridinone, methanesulfonate 0.8 hydrate], the values for the IC50 (in the test on HCT-8 cells; in test [3]) were 1010 nM and 1500 nM, respectively. The MIC is greater than 1000 µg/mL in test [1]; 111 µg/mL in the test on Branhamella catarrhalis; greater than 1000 µg/mL with Escherichia coli; greater than 1000 µg/mL in the test on Streptococcus pneumoniae; greater than 1000 µg/mL in the test on Bacillus cereus. For the same compound, the response vs control in vivo at 100 mg/kg in test [2] (setting [4]) is 130%. Also, the response vs control in vivo at 200 mg/kg in test [2] (setting [4]) turned out to be 147%.
